Source: PubChem BioAssay (NCI)
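1) Cells in 96-well plates. 2) Compound, 48 h, 5 concentrations. 3) Linear interpolation between surrounding doses. 4) Unreached endpoint = highest concentration. TGI marks complete inhibition of growth.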

What was measured:
Assay in all cases: NCI anticancer screen, dose series, 48 h
HCT-15 colon = system: HCT-15 colon
EKVX NSCLC = system: EKVX NSCLC
HL-60(TB) leukemia = system: HL-60(TB) leukemia
UACC-257 melanoma = system: UACC-257 melanoma
KM20L2 colon = system: KM20L2 colon
IGROV1 ovarian = system: IGROV1 ovarian
786-0 renal = system: 786-0 renal
M19-MEL melanoma = system: M19-MEL melanoma
COLO 205 colon = system: COLO 205 colon
U251 CNS = system: U251 CNS
DMS 114 small cell lung = system: DMS 114 small cell lung
SK-MEL-2 melanoma = system: SK-MEL-2 melanoma
K-562 leukemia = system: K-562 leukemia
A549 NSCLC = system: A549 NSCLC
NCI-H460 lung = system: NCI-H460 lung
OVCAR-5 ovarian = system: OVCAR-5 ovarian
M14 melanoma = system: M14 melanoma
NCI-H226 lung = system: NCI-H226 lung
SW-620 colon = system: SW-620 colon
ACHN renal = system: ACHN renal
RXF 393 renal = system: RXF 393 renal
A498 renal = system: A498 renal
SN12C renal = system: SN12C renal
SF-539 CNS = system: SF-539 CNS
SK-MEL-5 melanoma = system: SK-MEL-5 melanoma
MOLT-4 leukemia = system: MOLT-4 leukemia
TK-10 renal = system: TK-10 renal
KM12 colon = system: KM12 colon
HOP-62 NSCLC = system: HOP-62 NSCLC
SF-295 CNS = system: SF-295 CNS
HOP-18 NSCLC = system: HOP-18 NSCLC
RXF-631 renal = system: RXF-631 renal
HCT-116 colon = system: HCT-116 colon
SF-268 CNS = system: SF-268 CNS
OVCAR-3 ovarian = system: OVCAR-3 ovarian
UACC-62 melanoma = system: UACC-62 melanoma
RPMI-8226 leukemia = system: RPMI-8226 leukemia
SR leukemia = system: SR leukemia
SK-OV-3 ovarian = system: SK-OV-3 ovarian
UO-31 renal = system: UO-31 renal
SK-MEL-28 melanoma = system: SK-MEL-28 melanoma
OVCAR-8 ovarian = system: OVCAR-8 ovarian
LOX IMVI melanoma = system: LOX IMVI melanoma
MALME-3M melanoma = system: MALME-3M melanoma
SNB-19 CNS = system: SNB-19 CNS
HOP-92 NSCLC = system: HOP-92 NSCLC
NCI-H522 lung = system: NCI-H522 lung
DLD-1 colon = system: DLD-1 colon
LXFL 529 NSCLC = system: LXFL 529 NSCLC
SNB-75 CNS = system: SNB-75 CNS
HT29 colon = system: HT29 colon
XF 498 CNS = system: XF 498 CNS
NCI-H23 lung = system: NCI-H23 lung
CCRF-CEM leukemia = system: CCRF-CEM leukemia

## O=C1C(c2ccccc2)=[N+]([O-])c2ccc(Cl)cc21
HCT-15 colon
  TGI: 64.2 µM
EKVX NSCLC
  TGI: 47.3 µM
HL-60(TB) leukemia
  TGI: 38.5 µM
UACC-257 melanoma
  TGI: 46.8 µM
KM20L2 colon
  TGI: > 100 µM
IGROV1 ovarian
  TGI: 57 µM
786-0 renal
  TGI: > 100 µM
M19-MEL melanoma
  TGI: 42.1 µM
COLO 205 colon
  TGI: 28.9 µM
U251 CNS
  TGI: 65.1 µM
DMS 114 small cell lung
  TGI: 25.6 µM
SK-MEL-2 melanoma
  TGI: > 100 µM
K-562 leukemia
  TGI: > 100 µM
A549 NSCLC
  TGI: > 100 µM
NCI-H460 lung
  TGI: > 100 µM
OVCAR-5 ovarian
  TGI: 61.5 µM
M14 melanoma
  TGI: > 100 µM
NCI-H226 lung
  TGI: 49.9 µM
SW-620 colon
  TGI: 93.3 µM
ACHN renal
  TGI: 56.7 µM
RXF 393 renal
  TGI: 29.1 µM
A498 renal
  TGI: > 100 µM
SN12C renal
  TGI: 67.4 µM
SF-539 CNS
  TGI: 38.5 µM
SK-MEL-5 melanoma
  TGI: 35.2 µM
MOLT-4 leukemia
  TGI: 81.6 µM
TK-10 renal
  TGI: 77.9 µM
KM12 colon
  TGI: > 100 µM
HOP-62 NSCLC
  TGI: > 100 µM
SF-295 CNS
  TGI: > 100 µM
HOP-18 NSCLC
  TGI: > 100 µM
RXF-631 renal
  TGI: 86.2 µM
HCT-116 colon
  TGI: 34.7 µM
SF-268 CNS
  TGI: 62.4 µM
OVCAR-3 ovarian
  TGI: 59.9 µM
UACC-62 melanoma
  TGI: 35 µM
RPMI-8226 leukemia
  TGI: > 100 µM
SR leukemia
  TGI: > 100 µM
SK-OV-3 ovarian
  TGI: > 100 µM
UO-31 renal
  TGI: > 100 µM
SK-MEL-28 melanoma
  TGI: 48.8 µM
OVCAR-8 ovarian
  TGI: 30.5 µM
LOX IMVI melanoma
  TGI: 32.7 µM
MALME-3M melanoma
  TGI: 61.8 µM
SNB-19 CNS
  TGI: > 100 µM
HOP-92 NSCLC
  TGI: 0.096 µM
NCI-H522 lung
  TGI: 31 µM
DLD-1 colon
  TGI: 51.3 µM
LXFL 529 NSCLC
  TGI: 34.9 µM
SNB-75 CNS
  TGI: > 100 µM
HT29 colon
  TGI: 56.1 µM
XF 498 CNS
  TGI: 35.8 µM
NCI-H23 lung
  TGI: > 100 µM
CCRF-CEM leukemia
  TGI: > 100 µM
